This assay concerns the target somatostatin type 2 (SSTR2) receptors (Homo sapiens, UniProt P30874). The assay is described as follows: PathHunter β-Arrestin assay, antagonist mode, SSTR2. The class given is cell-based. As to conditions: agonist challenge at EC80. The protocol:
The PathHunter® β-Arrestin assay monitors the activation of a GPCR in a homogenous, non-imaging assay format using a technology developed by DiscoveRx called Enzyme Fragment Complementation (EFC) with β-galactosidase (β-Gal) as the functional reporter. […] EA is fused to β-Arrestin and […] is fused to the GPCR of interest. When the GPCR is activated and β-Arrestin is recruited to the receptor, ED and EA complementation occurs, restoring β-Gal activity which is measured using chemiluminescent PathHunter® Detection Reagents. For antagonist determination, cells were pre-incubated with the compounds followed by agonist challenge at the EC80 concentration. Data was normalized to the maximal and minimal response observed in the presence of EC80 ligand and vehicle. Compound activity was analyzed using CBIS data analysis suite ChemInnovation, CA). Percentage inhibition was calculated using the following formula: % Inhibition=100%×(1−(mean signal of test sample-mean signal of vehicle control)/(mean signal of EC80 control-mean signal of vehicle control)). Percentage inhibition was calculated at 10 concentrations in steps on a Log 3 scale ranging from […] to 5e-5 μM. The results were plotted for IC50 calculation.

For 17 molecules, IC50 results are on record in patent US12486302B2, “Somatostatin receptor antagonist compounds and methods of using the same” (CDRD VENTURES INC., priority 2016, dated 2025).

*1 amine or outer side, *2 acyl side, *3 side chain or, on linkers, in order; H or OH if unused. Where a SMILES comes first, the peptide text is derived from it. Bridges are numbered along the chain shown (N, C = ends). Triazole bridges read from a SMILES are 1,4-linked. Side-chain parts run from the residue outwards. [ ]: non-standard residue; d: D form. The star is where a group is joined. ξ: configuration not given here. dPhe(4-CONH2) = NC(=O)c1ccc(C[C@@H](N)C(=O)O)cc1; dPhe(4-NH2) = Nc1ccc(C[C@@H](N)C(=O)O)cc1; Phe(4-Cl) = N[C@@H](Cc1ccc(Cl)cc1)C(=O)O; Dap(N3) = [N-]=[N+]=NC[C@H](N)C(=O)O; ξPhe(4-Cl) = NC(Cc1ccc(Cl)cc1)C(=O)O; Lys(Me) = CNCCCC[C@H](N)C(=O)O; X4 = O=C(CS(=O)(=O)c1ccccc1)*; Nicotinoyl = O=C(c1cccnc1)*; ξY = NC(Cc1ccc(O)cc1)C(=O)O; Pra = C#CC[C@H](N)C(=O)O; dDap = NC[C@@H](N)C(=O)O; ξF = NC(Cc1ccccc1)C(=O)O; CO = O=C([*:1])[*:2]; Bz = O=C(c1ccccc1)*; NHPh = c1ccc(N*)cc1; βAla = NCCC(=O)O Where only a bound is given, the exact number is not on record here.

One may read the IC50 as the point on the concentration scale where inhibition reaches its midpoint. A lower IC50 goes with greater potency in that assay.

Chain of somatostatin type 2 (SSTR2) receptors (P30874 whole entry, the tested form may be a part): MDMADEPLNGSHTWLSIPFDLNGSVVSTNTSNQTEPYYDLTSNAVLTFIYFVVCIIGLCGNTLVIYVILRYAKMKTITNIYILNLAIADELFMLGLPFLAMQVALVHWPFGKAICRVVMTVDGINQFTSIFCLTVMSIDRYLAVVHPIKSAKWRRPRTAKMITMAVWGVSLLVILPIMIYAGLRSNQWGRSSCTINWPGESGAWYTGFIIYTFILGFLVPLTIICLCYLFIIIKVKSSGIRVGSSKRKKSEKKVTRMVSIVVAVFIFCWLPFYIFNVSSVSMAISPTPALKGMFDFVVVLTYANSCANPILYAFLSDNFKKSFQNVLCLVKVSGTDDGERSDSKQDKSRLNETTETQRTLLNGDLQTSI

Molecule `C[C@@H](O)[C@@H]1NC(=O)[C@H](CCCNC(=N)N)NC(=O)[C@@H](Cc2ccc(C(N)=O)cc2)NC(=O)[C@H](Cc2ccc(O)cc2)NC(=O)[C@H](NC(=O)[C@@H](N)Cc2ccc(Cl)cc2)CSSC[C@@H](C(=O)NC(Cc2ccc(O)cc2)C(N)=O)NC1=O` (stereo partly drawn) [Compound 29, H-Cpa-cyclo[DCys- Tyr-D-(4- carbamoyl)Phe-Arg- Thr-Cys]-DTyr-NH2] (H-[Phe(4-Cl)][dC]Y[dPhe(4-CONH2)]RTC[ξY]-NH2; disulfide 2-7) displayed an IC50 of 398 nM.

The molecule `CNCCCC[C@@H]1NC(=O)[C@@H](Cc2ccc(C(N)=O)cc2)NC(=O)[C@H](Cc2ccc(O)cc2)NC(=O)[C@H](NC(=O)[C@@H](N)Cc2ccc(Cl)cc2)CSSC[C@@H](C(=O)NC(Cc2ccc(Cl)cc2)C(N)=O)NC(=O)[C@H]([C@@H](C)O)NC1=O` (stereo partly drawn) [Compound 46, H-Cpa-cyclo[D-Cys-Tyr-D-Phe(4-carbamoyl)-Lys(N^ε-Me)-Thr-Cys]-D-Cpa-NH2] (H-[Phe(4-Cl)][dC]Y[dPhe(4-CONH2)][Lys(Me)]TC[ξPhe(4-Cl)]-NH2; disulfide 2-7) registered an IC50 of 0.398 nM. Compared with the last molecule, the IC50 is about 1000-fold lower.

`CNCCCC[C@@H]1NC(=O)[C@@H](CCCCNC(=O)c2cccnc2)NC(=O)[C@H](Cc2ccc(O)cc2)NC(=O)[C@H](NC(=O)[C@@H](N)Cc2ccc(Cl)cc2)CSSC[C@@H](C(=O)NC(Cc2ccc(O)cc2)C(N)=O)NC(=O)[C@H]([C@@H](C)O)NC1=O` (stereo partly drawn) [Compound 30, H-Cpa-cyclo[D-Cys-Tyr-D-Lys(N^ε-nicotinoyl)-Lys(N^ε-Me)-Thr-Cys]-D-Tyr-NH2] (H-[Phe(4-Cl)][dC]Y[dK](Nicotinoyl)[Lys(Me)]TC[ξY]-NH2; disulfide 2-7): the IC50 came to 177 nM.

Molecule `CNCCCC[C@@H]1NC(=O)[C@@H](Cc2ccc(NC(=O)Nc3ccccc3)cc2)NC(=O)[C@H](Cc2ccc(O)cc2)NC(=O)[C@H](NC(=O)[C@@H](N)Cc2ccc(Cl)cc2)CSSC[C@@H](C(=O)NC(Cc2ccc(O)cc2)C(N)=O)NC(=O)[C@H]([C@@H](C)O)NC1=O` (stereo partly drawn) [Compound 25, H-Cpa-cyclo[D-Cys-Tyr-D-Phe(4-phenylureido)-Lys(N^ε-Me)-Thr-Cys]-D-Tyr-NH2] (H-[Phe(4-Cl)][dC]Y[dPhe(4-NH2)]([CO-NHPh])[Lys(Me)]TC[ξY]-NH2; disulfide 2-7) came in with an IC50 of 2.32 nM.

Consider `C[C@@H](O)[C@@H]1NC(=O)[C@H](CCCCN)NC(=O)[C@@H](Cc2ccc(C(N)=O)cc2)NC(=O)[C@H](Cc2ccc(O)cc2)NC(=O)[C@H](NC(=O)[C@@H](N)Cc2ccc(Cl)cc2)CSSC[C@@H](C(=O)NC(Cc2ccccc2)C(N)=O)NC1=O` (stereo partly drawn) [Compound 40, H-Cpa-cyclo[DCys- Tyr-D-(4- carbamoyl)Phe-Lys- Thr-Cys]-DPhe-NH2] (H-[Phe(4-Cl)][dC]Y[dPhe(4-CONH2)]KTC[ξF]-NH2; disulfide 2-7), for which the IC50 turned out to be 16.2 nM.

With `CC(=O)NCCCC[C@@H]1NC(=O)[C@@H](Cc2ccc(C(N)=O)cc2)NC(=O)[C@H](Cc2ccc(O)cc2)NC(=O)[C@H](NC(=O)[C@@H](N)Cc2ccc(Cl)cc2)CSSC[C@@H](C(=O)NC(Cc2ccc(O)cc2)C(N)=O)NC(=O)[C@H]([C@@H](C)O)NC1=O` (stereo partly drawn) [Compound 26, H-Cpa-cyclo[DCys- Tyr-D-(4- carbamoyl)Phe-(N- Acetyl)Lys-Thr-Cys]- DTyr-NH2] (H-[Phe(4-Cl)][dC]Y[dPhe(4-CONH2)]K(Ac)TC[ξY]-NH2; disulfide 2-7), the IC50 is over 1000 nM.

Consider `CNCCCC[C@@H]1NC(=O)[C@@H](Cc2ccc(C(N)=O)cc2)NC(=O)[C@H](Cc2ccc(O)cc2)NC(=O)[C@H](NC(=O)[C@@H](N)Cc2ccc(Cl)cc2)CNC(=O)C[C@@H](C(=O)N[C@H](Cc2ccc(O)cc2)C(N)=O)NC(=O)[C@H]([C@@H](C)O)NC1=O` [Compound 71, H-Cpa-cyclo [DDap-Tyr- DPhe(4-CONH2)- Lys(Me)-Thr- Asp]-DTyr-NH2] (H-[Phe(4-Cl)][dDap]Y[dPhe(4-CONH2)][Lys(Me)]TD[dY]-NH2; lactam 2-7), for which the IC50 was 13.3 nM. This counts as double-digit nanomolar.

Consider `COc1ccc(C[C@@H]2NC(=O)[C@H](NC(=O)[C@@H](N)Cc3ccc(Cl)cc3)CSSC[C@@H](C(=O)NC(Cc3ccc(O)cc3)C(N)=O)NC(=O)[C@H]([C@@H](C)O)NC(=O)[C@H](CCCCN)NC(=O)[C@@H](Cc3ccc(C(N)=O)cc3)NC2=O)cc1` (stereo partly drawn) [Compound 38, H-Cpa-cyclo[DCys- 4-OMe-Phe-D-(4- carbamoyl)Phe-Lys- Thr-Cys]-DTyr-NH2] (H-[Phe(4-Cl)][dC]Y(Me)[dPhe(4-CONH2)]KTC[ξY]-NH2; disulfide 2-7), for which the IC50 amounted to 24.4 nM.

The molecule `C[C@@H](O)[C@@H]1NC(=O)[C@H](CCCCN)NC(=O)[C@@H](Cc2ccc(C(N)=O)cc2)NC(=O)[C@H](Cc2ccccc2)NC(=O)[C@H](NC(=O)[C@@H](N)Cc2ccc(Cl)cc2)CSSC[C@@H](C(=O)NC(Cc2ccc(O)cc2)C(N)=O)NC1=O` (stereo partly drawn) [Compound 35, H-Cpa-cyclo[DCys- Phe-D-(4- carbamoyl)Phe-Lys- Thr-Cys]-DTyr-NH2] (H-[Phe(4-Cl)][dC]F[dPhe(4-CONH2)]KTC[ξY]-NH2; disulfide 2-7) registered a half-maximal inhibitory concentration (IC50) of 35.9 nM.

The molecule `C[C@@H](O)[C@@H]1NC(=O)[C@H](CCCCN)NC(=O)[C@@H](Cc2ccc(C(N)=O)cc2)NC(=O)[C@H](Cc2ccc(O)cc2)NC(=O)[C@H](NC(=O)[C@@H](N)Cc2ccc(Cl)cc2)CSSC[C@@H](C(=O)NC(Cc2ccc(Cl)cc2)C(N)=O)NC1=O` (stereo partly drawn) [Compound 42, H-Cpa-cyclo[DCys- Tyr-D-(4- carbamoyl)Phe- Lys-Thr-Cys]- 4-Cl-D-Phe-NH2] (H-[Phe(4-Cl)][dC]Y[dPhe(4-CONH2)]KTC[ξPhe(4-Cl)]-NH2; disulfide 2-7) registered an IC50 of 9.84 nM.

`CNCCCC[C@@H]1NC(=O)[C@@H](Cc2ccc(C(N)=O)cc2)NC(=O)[C@H](Cc2ccc(O)cc2)NC(=O)[C@H](NC(=O)[C@H](Cc2ccc(Cl)cc2)NC(=O)CS(=O)(=O)c2ccccc2)CSSC[C@@H](C(=O)N[C@H](Cc2ccc(O)cc2)C(N)=O)NC(=O)[C@H]([C@@H](C)O)NC1=O` [Compound 51, PhSO2CH2(CO)-Cpa-cyclo[D-Cys-Tyr-D-Phe(4-carbamoyl)-Lys(N^ε-Me)-Thr-Cys]-D-Tyr-NH2] (X4-[Phe(4-Cl)][dC]Y[dPhe(4-CONH2)][Lys(Me)]TC[dY]-NH2; disulfide 2-7): the half-inhibitory concentration (IC50) amounted to 1.45 nM.

In turn, `C[C@@H](O)[C@@H]1NC(=O)[C@H](CCCCN)NC(=O)[C@@H](Cc2ccc(NC(=O)c3ccccc3)cc2)NC(=O)[C@H](Cc2ccc(O)cc2)NC(=O)[C@H](NC(=O)[C@@H](N)Cc2ccc(Cl)cc2)CSSC[C@@H](C(=O)NC(Cc2ccc(O)cc2)C(N)=O)NC1=O` (stereo partly drawn) [Compound 27, H-Cpa-cyclo[DCys- Tyr-D-(4- Benzamidophenyl) Phe-Lys-Thr- Cys]-DTyr-NH2] (H-[Phe(4-Cl)][dC]Y[dPhe(4-NH2)](Bz)KTC[ξY]-NH2; disulfide 2-7) gave an IC50 of 34.7 nM. This IC50 is about 24-fold higher than that of the molecule before.

`C[C@@H](O)[C@@H]1NC(=O)[C@H](CCCCN)NC(=O)[C@@H](Cc2ccc(C(N)=O)cc2)NC(=O)[C@H](Cc2ccc(O)cc2)NC(=O)[C@H](NC(=O)[C@@H](N)Cc2ccc(Cl)cc2)CNC(=O)C[C@@H](C(=O)N[C@H](Cc2ccc(O)cc2)C(N)=O)NC1=O` [Compound 69, H-Cpa-cyclo [DDap-Tyr- DPhe(4-CONH2)- Lys-Thr-Asp]- DTyr-NH2] (H-[Phe(4-Cl)][dDap]Y[dPhe(4-CONH2)]KTD[dY]-NH2; lactam 2-7) came in with an IC50 of over 1000 nM.

`CNCCCC[C@@H]1NC(=O)[C@@H](Cc2ccc(C(N)=O)cc2)NC(=O)[C@H](Cc2ccc(O)cc2)NC(=O)[C@H](NC(=O)[C@H](Cc2ccc(Cl)cc2)NC(=O)CNC(=O)c2ccccc2)CSSC[C@@H](C(=O)N[C@H](Cc2ccc(O)cc2)C(N)=O)NC(=O)[C@H]([C@@H](C)O)NC1=O` [Compound 50, Ph(CO)NHCH2(CO)-Cpa-cyclo[D-Cys-Tyr-D-Phe(4-carbamoyl)-Lys(N^ε-Me)-Thr-Cys]-D-Tyr-NH2] (Bz-G[Phe(4-Cl)][dC]Y[dPhe(4-CONH2)][Lys(Me)]TC[dY]-NH2; disulfide 3-8) gave an IC50 of 1.11 nM.

`CNCCCC[C@@H]1NC(=O)[C@@H](Cc2ccc(C(N)=O)cc2)NC(=O)[C@H](Cc2ccc(O)cc2)NC(=O)[C@H](NC(=O)[C@H](Cc2ccc(Cl)cc2)NC(=O)CCN)CSSC[C@@H](C(=O)N[C@H](Cc2ccc(O)cc2)C(N)=O)NC(=O)[C@H]([C@@H](C)O)NC1=O` [Compound 49, H-β-Ala-Cpa-cyclo[D-Cys-Tyr-D-Phe(4-carbamoyl)-Lys (Nε-Me)-Thr-Cys]-D-Tyr-NH2] (H-[βAla][Phe(4-Cl)][dC]Y[dPhe(4-CONH2)][Lys(Me)]TC[dY]-NH2; disulfide 3-8) registered an IC50 of 2.86 nM.

As to `C[C@@H](O)[C@@H]1NC(=O)[C@H](CCCCN)NC(=O)[C@@H](Cc2ccc(C(N)=O)cc2)NC(=O)[C@H](Cc2ccc(O)cc2)NC(=O)[C@@H](NC(=O)[C@@H](N)Cc2ccc(Cl)cc2)Cc2cn(nn2)C[C@@H](C(=O)N[C@H](Cc2ccc(O)cc2)C(N)=O)NC1=O` [Compound 65] (H-[Phe(4-Cl)][Pra]Y[dPhe(4-CONH2)]KT[Dap(N3)][dY]-NH2; triazole 2-7), the IC50 amounted to 688 nM.

`NCCCC[C@@H]1NC(=O)[C@@H](Cc2ccc(C(N)=O)cc2)NC(=O)[C@H](Cc2ccc(O)cc2)NC(=O)[C@H](NC(=O)[C@@H](N)Cc2ccc(Cl)cc2)CSSC[C@@H](C(=O)NC(Cc2ccc(O)cc2)C(N)=O)NC(=O)[C@H](CO)NC1=O` (stereo partly drawn) [Compound 37, H-Cpa-cyclo[DCys- Tyr-D-(4- carbamoyl)Phe-Lys- Ser-Cys]-DTyr-NH2] (H-[Phe(4-Cl)][dC]Y[dPhe(4-CONH2)]KSC[ξY]-NH2; disulfide 2-7) gave an IC50 of 10.6 nM. This IC50 is about 65-fold lower than that of the molecule before.
